Results taken from patent US8802597B2, “Herbicidal pyrimidines” (E I du Pont de Nemours and Company, priority 2003, dated 2014).

Key:
Type in all cases: in vivo
[1] = test system: chickweed (Stellaria media); assay: Test C postemergence; conditions: for Chickweed plant response rating: scale 0 to 100 (0 no effect, 100 complete control); for Plant response rating, Chickweed: scale 0 to 100
Method in brief: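 Percent control is a visual rating (0 none, 100 complete) taken against untreated plants after 12 to 14 days of greenhouse growth. Applications were made preemergence to seeded pots and postemergence to plants at the 1- to 4-leaf stage, in a non-phytotoxic surfactant-containing solvent.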

[2] = test system: giant foxtail (Setaria faberii); assay: Test C pre/postemergence; conditions: for Foxtail, Giant plant response rating: scale 0 to 100 (0 no effect, 100 complete control)
Description: (§1) Seeds or nutlets of plant species selected from bermudagrass (Cynodon dactylon), Surinam grass (Brachiaria decumbens), cocklebur (Xanthium strumarium), corn (Zea mays), crabgrass (Digitaria sanguinalis), woolly cupgrass (Eriochloa villosa), giant foxtail (Setaria faberii), goosegrass (Eleusine indica), johnsongrass (Sorghum halepense), kochia (Kochia scoparia), lambsquarters (Chenopodium album), morningglory (Ipomoea coccinea), eastern black nightshade (Solanum ptycanthum), yellow nutsedge (Cyperus esculentus), pigweed (Amaranthus retroflexus), common ragweed (Ambrosia elatior), soybean (Glycine max), common (oilseed) sunflower (Helianthus annuus), and velvetleaf (Abutilon theophrasti) were planted and treated preemergence with test chemicals formulated in a non-phytotoxic solvent mixture which included a surfactant.
(§2) At the same time, plants selected from these crop and weed species and also winter barley (Hordeum vulgare), blackgrass (Alopecurus myosuroides), canarygrass (Phalaris minor), chickweed (Stellaria media), downy brome (Bromus tectorum), green foxtail (Setaria viridis), Italian ryegrass (Lolium multiflorum), wheat (Triticum aestivum), wild oat (Avena fatua) and windgrass (Apera spica-venti) were treated with postemergence applications of some of the test chemicals formulated in the same manner. Plants ranged in height from 2 to 18 cm (1- to 4-leaf stage) for postemergence treatments. Plant species in the flooded paddy test consisted of rice (Oryza sativa), umbrella sedge (Cyperus difformis), duck salad (Heteranthera limosa) and barnyardgrass (Echinochloa crus-galli) grown to the 2-leaf stage for testing. Treated plants and controls were maintained in a greenhouse for 12 to 14 days, after which time all species were compared to controls and visually evaluated. Plant response ratings, summarized in Table C, are based on a scale of 0 to 100 where 0 is no effect and 100 is complete control. A dash (-) response means no test result.

[3] = test system: velvetleaf (Abutilon theophrasti); assay: Test C pre/postemergence; conditions: for Velvetleaf plant response rating: scale 0 to 100 (0 no effect, 100 complete control)
Description: as §1, §2

[4] = test system: goosegrass (Eleusine indica); assay: Test C pre/postemergence; conditions: for Goosegrass plant response rating: scale 0 to 100 (0 no effect, 100 complete control)
Description: as §1, §2

[5] = test system: lambsquarters (Chenopodium album); assay: Test C pre/postemergence; conditions: for Lambsquarters plant response rating: scale 0 to 100 (0 no effect, 100 complete control)
Description: as §1, §2

[6] = Postemergence, 250 g ai/ha, scale 0 to 100
[7] = Postemergence, 500 g ai/ha, scale 0 to 100
[8] = Preemergence, 62 g ai/ha, scale 0 to 100, 0 no effect, 100 complete control
[9] = Preemergence, 125 g ai/ha, scale 0 to 100
[10] = Preemergence, 250 g ai/ha, scale 0 to 100
[11] = Preemergence, 500 g ai/ha, scale 0 to 100
[12] = Preemergence, 16 g ai/ha, scale 0 to 100, 0 no effect, 100 complete control
[13] = Preemergence, 31 g ai/ha, scale 0 to 100, 0 no effect, 100 complete control

SMILES: CN(C)N=Cc1nc(C2CC2)nc(N)c1Br [Compound 50]
- Chickweed plant response rating ([1]; 62 g ai/ha): 0
- Chickweed plant response rating ([1]; 125 g ai/ha): 0
- Plant response rating, Chickweed ([1]; 500 g ai/ha): 20
- Foxtail, Giant plant response rating ([2]; Postemergence, 62 g ai/ha): 0
- Foxtail, Giant plant response rating ([2]; Postemergence, 125 g ai/ha): 0
- Plant response rating, Foxtail, Giant [2, 6]: 0
- Plant response rating, Foxtail, Giant [2, 7]: 20
- Plant response rating, Foxtail, Giant [2, 8]: 0
- Plant response rating, Foxtail, Giant [2, 9]: 0
- Plant response rating, Foxtail, Giant [2, 10]: 0
- Plant response rating, Foxtail, Giant [2, 11]: 70
- Velvetleaf plant response rating ([3]; Postemergence, 62 g ai/ha): 50
- Velvetleaf plant response rating ([3]; Postemergence, 125 g ai/ha): 55
- Plant response rating, Velvetleaf [3, 6]: 70
- Plant response rating, Velvetleaf [3, 7]: 80
- Plant response rating, Velvetleaf [3, 8]: 65
- Plant response rating, Velvetleaf [3, 9]: 75
- Plant response rating, Velvetleaf [3, 10]: 85
- Plant response rating, Velvetleaf [3, 11]: 100
- Goosegrass plant response rating ([4]; Postemergence, 62 g ai/ha): 0
- Goosegrass plant response rating ([4]; Postemergence, 125 g ai/ha): 0
- Plant response rating, Goosegrass [4, 6]: 0
- Plant response rating, Goosegrass [4, 7]: 0
- Plant response rating, Goosegrass [4, 8]: 0
- Plant response rating, Goosegrass [4, 9]: 0
- Plant response rating, Goosegrass [4, 10]: 0
- Plant response rating, Goosegrass [4, 11]: 0
- Lambsquarters plant response rating ([5]; Postemergence, 62 g ai/ha): 70
- Lambsquarters plant response rating ([5]; Postemergence, 125 g ai/ha): 75
- Plant response rating, Lambsquarters [5, 6]: 80
- Plant response rating, Lambsquarters [5, 7]: 85
- Plant response rating, Lambsquarters [5, 8]: 95
- Plant response rating, Lambsquarters [5, 9]: 100
- Plant response rating, Lambsquarters [5, 10]: 100
- Plant response rating, Lambsquarters [5, 11]: 100

SMILES: COCc1nc(C2CC2)nc(N)c1Br [Compound 11]
- Plant response rating (scale of 0 to 100), Chickweed ([1]; 16 g ai/ha): 0
- Plant response rating (scale of 0 to 100), Chickweed ([1]; 31 g ai/ha): 0
- Chickweed plant response rating ([1]; 62 g ai/ha): 0
- Plant response rating, Chickweed ([1]; 125 g ai/ha): 0
- Plant response rating (scale of 0 to 100), Foxtail, Giant ([2]; Postemergence, 16 g ai/ha): 0
- Plant response rating (scale of 0 to 100), Foxtail, Giant ([2]; Postemergence, 31 g ai/ha): 0
- Foxtail, Giant plant response rating ([2]; Postemergence, 62 g ai/ha): 0
- Foxtail, Giant plant response rating ([2]; Postemergence, 125 g ai/ha): 0
- Plant response rating, Foxtail, Giant [2, 12]: 0
- Plant response rating, Foxtail, Giant [2, 13]: 0
- Plant response rating, Foxtail, Giant [2, 8]: 0
- Plant response rating, Foxtail, Giant [2, 9]: 20
- Plant response rating (scale of 0 to 100), Velvetleaf ([3]; Postemergence, 16 g ai/ha): 20
- Plant response rating (scale of 0 to 100), Velvetleaf ([3]; Postemergence, 31 g ai/ha): 50
- Velvetleaf plant response rating ([3]; Postemergence, 62 g ai/ha): 60
- Velvetleaf plant response rating ([3]; Postemergence, 125 g ai/ha): 75
- Plant response rating, Velvetleaf [3, 12]: 0
- Plant response rating, Velvetleaf [3, 13]: 0
- Plant response rating, Velvetleaf [3, 8]: 0
- Plant response rating, Velvetleaf [3, 9]: 0
- Plant response rating (scale of 0 to 100), Goosegrass ([4]; Postemergence, 16 g ai/ha): 0
- Plant response rating (scale of 0 to 100), Goosegrass ([4]; Postemergence, 31 g ai/ha): 0
- Goosegrass plant response rating ([4]; Postemergence, 62 g ai/ha): 0
- Goosegrass plant response rating ([4]; Postemergence, 125 g ai/ha): 0
- Plant response rating, Goosegrass [4, 12]: 0
- Plant response rating, Goosegrass [4, 13]: 0
- Plant response rating, Goosegrass [4, 8]: 0
- Plant response rating, Goosegrass [4, 9]: 0
- Plant response rating (scale of 0 to 100), Lambsquarters ([5]; Postemergence, 16 g ai/ha): 50
- Plant response rating (scale of 0 to 100), Lambsquarters ([5]; Postemergence, 31 g ai/ha): 60
- Lambsquarters plant response rating ([5]; Postemergence, 62 g ai/ha): 70
- Lambsquarters plant response rating ([5]; Postemergence, 125 g ai/ha): 80
- Plant response rating, Lambsquarters [5, 12]: 0
- Plant response rating, Lambsquarters [5, 13]: 0
- Plant response rating, Lambsquarters [5, 8]: 40
- Plant response rating, Lambsquarters [5, 9]: 85
